Data reported in paper PMC4219730 (PLoS ONE, 2014).
Where two headings read alike, the source gives them in different places.

Tests used:
SSTR2 = conditions: cited from earlier work
[1] = tested on: xenografts of a human meningioma cell line (CH-157MN); assay: Static PET/CT study: SUVmax and SUV ratios in mice bearing meningioma xenografts; type: in vivo, NUDE NU/NU mice; conditions: for T/L SUV ratio (tumor-to-liver): SUVmax of tumor normalized to SUVmax of liver, p<0.001; for Visualization of flank tumors in PET/CT images: comparative PET/CT images of the same animal
Protocol: (§1) Animals were scanned on a small-animal PET scanner (ARGUS PET-CT, SEDECAL, Madrid, Spain) under anesthesia (isoflurane, 3% induction and 1.5% maintenance in 100% O2). Imaging was performed 7–28 days after tumor cell inoculation. […] Half of the animals imaged with ^68Ga-DOTATOC were also imaged with the other two radiotracers in alternate days with respect to ^68Ga-DOTATOC (Figure 1).
(§2) Frames corresponding to the last 60 minutes of the study were summed to form a static image. Images were reconstructed using the 2D–OSEM (Ordered Subset Expectation Maximization) algorithm (16 subsets and two iterations), which yields a spatial resolution for this scanner of 1.45 mm Full Width at Half Maximum (FWHM), with a voxel size of 0.3875×0.3875×0.7750 mm^3. The energy window was 400–700 keV. Decay and deadtime corrections were applied.
Three 3D ROIs were drawn manually on the CT image, one for each tissue of interest (tumor, liver, and muscle), plus a background ROI outside the body area. Since the CT images are intrinsically registered to the PET images, the ROIs drawn on the CT image were directly overlaid on the PET image after correction for the different image sizes. The assessment of PET data included calculation of the maximum standard uptake value (SUVmax) on the static tomographic study and computation of the volume of distribution (Vt) from the dynamic study.
Tumor, muscle, and liver SUVmax values at 30–90 minutes post-injection were recorded. […] The SUVmax of the tumor lesions was normalized to the SUVmax of the liver (T/L) and muscle (T/M). The T/L and T/M SUV ratios were considered markers of the ability of the radiopharmaceutical to localize in the tumor.

SSTR5 = conditions: cited from earlier work
SSTR3 = conditions: cited from earlier work
[2] = parameters: method as in PMID 12937948; conditions: comparison between tracers; cited from earlier work
[3] = tested on: xenografts of a human meningioma cell line (CH-157MN); assay: Dynamic PET study: volume of distribution (Vt) by Logan graphical analysis; type: in vivo, NUDE NU/NU mice; conditions: two-tissue reversible compartmental model, comparison between radiotracers
Protocol: as §1, §2
Three 3D ROIs were drawn manually on the CT image, one for each tissue of interest (tumor, liver, and muscle), plus a background ROI outside the body area. Since the CT images are intrinsically registered to the PET images, the ROIs drawn on the CT image were directly overlaid on the PET image after correction for the different image sizes. […]
Vt was calculated from dynamic PET data using standard Logan graphical analysis for a two-tissue reversible compartmental model. […]

SSTR in CH-157MN cells = assay: Homologous competitive binding with [^125I]-somatostatin-28 in CH-157MN meningioma cells; parameters: species or system human; conditions: 0.5 nM [^125I]-somatostatin-28, 37°C, 1 hour, mean ± SEM, three independent experiments in triplicate, read-out: IC50 (concentration of cold ligand that reduces specific binding of radioligand by 50%)
Protocol: Affinity was determined from three independent experiments performed in triplicate and was measured by means of a homologous competitive binding experiment according to Motulsky and Neubig. The IC50 (concentration of cold ligand [somatostatin-28] that reduces specific binding of radioligand by 50%) was determined by competitive binding assays with [^125I]-somatostatin-28 (Amersham Pharmacia Biotech, UK) in CH-157MN meningioma cells. Briefly, cells were incubated into a 24-well cell culture plate (2–2.5×10^5 cells/well) at 37°C for 1 hour in a CO2 incubator with 0.5 nM [^125I]-somatostatin-28 (Amersham Pharmacia Biotech, UK) in the presence of increasing concentrations of somatostatin-28 (0.1 nM-10 µM) in 0.25 ml of binding media (DMEM, 2 mM L-glutamine, 50 units/ml penicillin and 50 µg/ml streptomycin). The reaction medium was aspirated after incubation. Cells were rinsed with 0.5 ml of ice-cold PBS twice and lysed in 0.5 ml of 1 N NaOH for five minutes. The activity in cells was measured in a Packard Cobra II gamma counter. The competitive binding curves were obtained by plotting the [^125I]-somatostatin-28 bound to cells against concentrations of cold ligand. IC50 and maximum numbers of binding sites (Bmax) were calculated using Origin 7.5 software (OriginLab Corporation, Northampton, Massachusetts, USA).

[4] = comparison between radiotracers

^68Ga-DOTA -Tyr^3-octreotide [^68Ga-DOTATOC]
Affinity for SSTR2 (SSTR2): high affinity | T/L SUV ratio (tumor-to-liver) [1, 4]: No differences were found between ^68Ga-DOTATATE and ^68Ga-DOTATOC | Visualization of flank tumors in PET/CT images [1]: better visualized

^68Ga-DOTA-Nal^3-octreotide [^68Ga-DOTANOC]
Affinity for SSTR2 (SSTR2; comparison with ^68Ga-DOTATOC): higher affinity for SSTR2 than ^68Ga-DOTATOC | Affinity for SSTR5 (SSTR5): has affinity for SSTR3 and SSTR5 | Affinity for SSTR3 (SSTR3): has affinity for SSTR3 and SSTR5 | Lipophilicity [2]: more lipophilic than ^68Ga-DOTATATE and ^68Ga-DOTATOC

^68Ga-DOTA-Tyr^3-octreotate [^68Ga-DOTATATE]
Affinity for SSTR2 (SSTR2): high affinity | T/L SUV ratio (tumor-to-liver) [1, 4]: No differences were found between ^68Ga-DOTATATE and ^68Ga-DOTATOC | T/M SUV ratio (tumor-to-muscle) ([1]; SUVmax of tumor normalized to SUVmax of muscle, comparison between radiotracers): higher than that of ^68Ga-DOTATOC (p<0.01) and ^68Ga-DOTANOC (p<0.05) | Visualization of flank tumors in PET/CT images [1]: better visualized | Vt tumor [3]: higher with ^68Ga-DOTATATE than with ^68Ga-DOTANOC and relatively similar to that of ^68Ga-DOTATOC

somatostatin-28
IC50 (SSTR in CH-157MN cells): 63.7 ± 32.3 nM
